{"source": "paper PMC12527977", "about": "“Discovery of a novel tetrapeptide as glucose homeostasis modulator with bifunctionalities of targeting DPP‐IV and microbiota” (iMeta, 2025)", "target": "DPP-IV (Homo sapiens, UniProt P27487)", "sequence (P27487 whole entry)": "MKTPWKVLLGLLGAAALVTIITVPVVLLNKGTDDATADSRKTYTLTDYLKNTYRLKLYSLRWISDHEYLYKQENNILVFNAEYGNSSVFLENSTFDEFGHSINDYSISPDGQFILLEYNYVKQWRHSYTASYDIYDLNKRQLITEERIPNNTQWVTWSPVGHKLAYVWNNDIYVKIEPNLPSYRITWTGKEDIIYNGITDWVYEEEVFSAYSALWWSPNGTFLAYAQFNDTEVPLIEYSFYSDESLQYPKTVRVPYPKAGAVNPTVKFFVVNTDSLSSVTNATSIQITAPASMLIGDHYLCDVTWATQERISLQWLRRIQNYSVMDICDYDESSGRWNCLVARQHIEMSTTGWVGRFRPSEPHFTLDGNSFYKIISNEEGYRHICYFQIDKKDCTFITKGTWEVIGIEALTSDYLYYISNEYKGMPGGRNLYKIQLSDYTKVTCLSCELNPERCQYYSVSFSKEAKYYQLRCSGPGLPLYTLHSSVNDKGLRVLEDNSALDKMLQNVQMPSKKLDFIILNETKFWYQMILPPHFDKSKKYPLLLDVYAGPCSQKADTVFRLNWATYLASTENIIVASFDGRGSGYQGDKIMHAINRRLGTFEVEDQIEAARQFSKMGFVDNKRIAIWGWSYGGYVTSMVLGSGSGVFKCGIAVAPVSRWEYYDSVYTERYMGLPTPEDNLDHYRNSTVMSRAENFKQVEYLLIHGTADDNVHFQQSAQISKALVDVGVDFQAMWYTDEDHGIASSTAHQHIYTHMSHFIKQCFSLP", "assay": "DPP-IV inhibition in iPSC-induced intestinal organoids (supernatant, DPP-IV-Glo kit)", "assay_type": "cell-based", "set-up": "endogenous in cells; host or cells: iPSC-induced intestinal organoids", "details": "Fig 1R, 24 h, read-out: Inhibitory effect on DPP-IV; for inhibition at 100 µg/mL: VAMP 100 μg/mL; for inhibition at 200 µg/mL: VAMP 200 μg/mL; for inhibition at 500 µg/mL: VAMP 500 μg/mL", "text": "iPSC-induced intestinal organoids were established according to the manufacturer’s instructions (STEMdiff^TM Intestinal Organoid kit).", "note": "Read-outs that look alike come from different tables or passages of the source. Where a SMILES comes first, the peptide text is derived from it.", "data": [{"compound": "CSCC[C@H](NC(=O)[C@H](C)NC(=O)[C@@H](N)C(C)C)C(=O)N1CCC[C@H]1C(=O)O", "note": "[VAMP] (H-VAMP-OH)", "values": [{"measurement": "inhibition at 100 µg/mL", "setting": "replicate 1", "result": 72.5, "unit": "%"}, {"measurement": "inhibition at 100 µg/mL", "setting": "replicate 2", "result": 69.3, "unit": "%"}, {"measurement": "inhibition at 100 µg/mL", "setting": "replicate 3", "result": 50.4, "unit": "%"}, {"measurement": "inhibition at 200 µg/mL", "setting": "replicate 1", "result": 82.5, "unit": "%"}, {"measurement": "inhibition at 200 µg/mL", "setting": "replicate 2", "result": 80.3, "unit": "%"}, {"measurement": "inhibition at 200 µg/mL", "setting": "replicate 3", "result": 84.2, "unit": "%"}, {"measurement": "inhibition at 500 µg/mL", "setting": "replicate 1", "result": 92.1, "unit": "%"}, {"measurement": "inhibition at 500 µg/mL", "setting": "replicate 2", "result": 89.1, "unit": "%"}, {"measurement": "inhibition at 500 µg/mL", "setting": "replicate 3", "result": 84.8, "unit": "%"}]}]}
